Reference: patent US5714471A, “Peptide and peptide analog protease inhibitors” (SIBIA Neurosciences, Inc., priority 1995, dated 1998)
Non-standard residues stand in square brackets, D forms with d. Residues, ends and D or L forms follow the SMILES beside them. ξ: configuration not given here. *: point of attachment. Chg = N[CH](C(=O)O)C1CCCCC1; Nle = CCCC[CH](N)C(=O)O; Cbz = O=C(OCc1ccccc1)*; ξNle = CCCCC(N)C(=O)O; CHN2 = [N-]=[N+]=C*

The compounds below were run on Aβ formation in HGB 717/Swed cells (assay: Immunoblot assay for Aβ peptide (inhibition of Aβ formation)). Conditions: concentration of 10 μM, overnight incubation, conditioned medium, relative to DMSO control.
Assay type: cell-based, human
Description: Human glioblastoma cells (ATCC Accession No. HTB16) were stably transfected with a DNA expression vector encoding a 695 amino acid isoform variant of the amyloid precursor protein (APP) containing the familial Swedish double mutations at codons 670 and 671 (K to N and M to L, respectively; see Mullan et al. (1992) Nature Genet. 1:345-347) and an additional mutation at codon 717 (V to F; see Murrell et al. (1991) Science 254:97-99) to produce cells designated HGB 717/Swed. High levels of Aβ are detectable in the conditioned medium isolated from HGb 717/Swed cultured cells. The medium also contains larger secreted fragments, α-sAPP695, which are alternatively processed APP fragments whose generation precludes Aβ formation.
HGB 717/Swed cells were grown at 37° C. under a 5% carbon dioxide atmosphere in Dulbecco's modified eagle medium (DMEM; Gibco) supplemented with 10% heat-inactivated fetal calf serum, 0.45% glucose, 2 mM L-glutamine, 100 units/ml penicillin, and 100 μg/ml streptomycin sulfate (Gemini Bioproducts). Approximately 1×10^6 cells were incubated overnight in 5 ml of DMEM containing varying μM final concentrations of desired test compounds or a DMSO control. Conditioned medium was collected, and unwanted cells and debris were removed by sedimentation at 3,000 rpm at 4° C.
Aβ peptides were isolated from the medium by immunoaffinity purification using an Aβ-specific antibody. To reduce the interaction of non-specific binding of unrelated proteins, such as serum proteins, to the antibody, the medium was pre-treated with rabbit antisera and Protein A Sepharose (Pharmacia) for 4 hours at 4° C. The sepharose-bound material was removed by centrifugation at 3,000 rpm at 4° C. for 10 min, and Aβ peptides were immunoaffinity purified from the clarified medium by incubation overnight with an affinity purified polyclonal rabbit antibody (referred to as 2939) prepared against a synthetic Aβ peptide corresponding to amino acids 1 to 28. Protein A-conjugated sepharose was added to immobilize the Aβ-antibody complexes, and the resin was pelleted by centrifugation at 3,000 rpm at 4° C. for 10 min. The Aβ -antibody complexes were eluted from the matrix by denaturing the complex by boiling in the presence of SDS.
Equal portions of each sample were loaded on 16% Tricine gels (Novex), and subjected to electrophoresis. Resolved proteins were transferred from the gel to Hybond nitrocellulose (Amersham, Arlington Heights, Ill.) by electroblotting, and incubated with the commercially available monoclonal antibody 6E10 (obtained from Drs. Kim and Wisniewski, Institute for Basic Research, New York, see, published International PCT application WO 90/12871), which specifically recognizes Aβ residues 1 to 17. Specifically bound antibody was detected using a biotinylated goat anti-mouse IgG secondary antibody (Sigma), followed by the addition of streptavidin conjugated to horseradish preoxidase (Amersham, Arlington Heights, Ill.), and documented by luminescent detection (Amersham). Levels of Aβ peptides were determined by laser densitometry of visualized films. A positive result in the assay is a decrease in the formation of the 4-kDa Aβ peptides relative to the DMSO control.

Compared with CC(=O)N[C@@H](CC(C)C)C(=O)N[C@@H](CC(C)C)C(=O)NC(C=O)CC1CCCCC1 (mixture of isomers) [Ac--L--L--Cha--(H), N-Ac-L-Leu-L-Leu-DL-cyclohexylalaninal], C=C(C)CC(C=O)NC(=O)[C@H](CC(C)C)NC(=O)[C@H](CC(C)C)NC(=O)OCc1ccccc1 (mixture of isomers) [Cbz--L--L--Lene--(H), (2SR)-N-Cbz-L-Leu-L-Leu N-[2-(4-methyl-4-pentenal)]amide] is higher in “% INHIBITION OF Aβ” value: 46% for the first, 95% for the second.

With C=C(C)CC(C=O)NC(=O)[C@H](Cc1ccccc1)NC(=O)[C@H](CC(C)C)NC(=O)OCc1ccccc1 (mixture of isomers) [Cbz--L--F--Lene--(H), (2SR)-N-Cbz-L-Leu-L-Phe-N-[2-(4-methyl-4-pentenal)]amide] the “% INHIBITION OF Aβ” value was 69%.

Same assay, conditions: concentration of 40 μM, overnight incubation, conditioned medium, relative to DMSO control

Compared with C=C(C)CC(C=O)NC(=O)[C@H](CC(C)C)NC(=O)[C@H](CC(C)C)OCc1ccccc1 (mixture of isomers) [2S--benzoxyvaleric--L--Lene--(H), (2SR)-N-[(2S)-2-benzoxy-4-methylpentanoyl]-L-Leu N-[2-(4-methyl-4-pentenal)]amide], CC(C)C[C@H](NC(=O)OCc1ccccc1)C(=O)N[C@@H](Cc1ccccc1)C(=O)NC(C=O)CC1CCCCC1 (mixture of isomers) [Cbz--L--F--Cha--(H), (2SR)-N-Cbz-L-Leu-L-Phe-DL-cyclohexylalaninal] is higher in “% INHIBITION OF Aβ” value: 85% for the first, 100% for the second.

Going from CCCCC(C=O)NC(=O)[C@H](CC(C)C)N(C)C(=O)[C@H](CC(C)C)NC(=O)OCc1ccccc1 (mixture of isomers) [Cbz--L--[CH3]--L--Nl--(H), N-Cbz-L-Leu-L-(methyl)Leu-DL-norleucinal] to CCCCC(C=O)NC(=O)C(CC(C)C)NC(=O)C1CCCN1C(=O)OCc1ccccc1 [Cbz--P--L--Nl--(H), N-Cbz-L-Pro-L-Leu-L-norleucinal] (Cbz-Pro-Leu-[Nle]-aldehyde; configuration not given here), the “% INHIBITION OF Aβ” value rises from 77% to 80%.

For “N-Cbz-L-Leu-L-Leu-DL-(methyl)norleucinal [Cbz--L--L--[CH3]--Nl--(H)]”, the “% INHIBITION OF Aβ” value was 97%.

Same assay, conditions: concentration of 50 μM, overnight incubation, conditioned medium, relative to DMSO control

In the case of CCCCC(C=O)NC(=O)[C@H](CC(C)C)NC(=O)[C@H](CC(C)C)NC(=O)OCC1c2ccccc2-c2ccccc21 (mixture of isomers) [Fmoc--L--L--Nl--(H), N-Fmoc-L-Leu-L-Leu-DL-norleucinal], the “% INHIBITION OF Aβ” value is reported as 89%.

Same assay, conditions: concentration of 75 μM, overnight incubation, conditioned medium, relative to DMSO control

Compared with CCCCC(NC(=O)[C@H](CC(C)C)NC(=O)[C@H](CC(C)C)NC(C)=O)C(=O)C(F)(F)F (mixture of isomers) [Ac--L--L--Nl--(TFMK), (3SR)-N-Ac-L-Leu-L-Leu N-[3-(1,1,1-trifluoro-2-oxo-heptyl)]amide], CCCCC(NC(=O)[C@H](CC(C)C)NC(=O)[C@H](CC(C)C)NC(C)=O)C(=O)C=[N+]=[N-] (stereo partly drawn) [Ac--L--L--Nl--(DM), N-Ac-L-Leu-L-Leu-L-Nle-COCHN2] (Ac-Leu-Leu-[ξNle]-CHN2) is higher in “% INHIBITION OF Aβ” value: 50% for the first, 87% for the second.

Going from CC=CCC(C=O)NC(=O)[C@H](CC(C)C)NC(=O)[C@H](CC(C)C)NC(C)=O (mixture of isomers) [Ac--L--L--Nlene--(H), (2SR)-N-Ac-L-Leu-L-Leu N [2-(trans-4-hexenal)]amide] to CCCCC(C#N)NC(=O)[C@H](CC(C)C)NC(=O)[C@H](CC(C)C)NC(C)=O (stereo partly drawn) [Ac--L--L--Nl--(CN), (2S)-N-Ac-L-Leu-L-Leu N-[2-(hexanenitrile)]amide], the “% INHIBITION OF Aβ” value falls from 96% to 94%.

With CC(=O)NC(CC(C)C)C(=O)NC(CC(C)C)C(=O)NC(C=O)C1CCCCC1 [Ac--L--L--Chg--(H)] (Ac-Leu-Leu-[Chg]-aldehyde; configuration not given here) the “% INHIBITION OF Aβ” value was 99%.
